Results as given in patent US9346815B2, “5-chloro-2-difluoromethoxyphenyl pyrazolopyrimidine compounds, compositions and methods of use thereof” (Genentech, Inc., priority 2014, dated 2016).
Counter-ions that a name gives are not always drawn.

Assays:
[1] = test system: JAK1-dependent STAT6 phosphorylation downstream of IL-13 stimulation in TF-1 human erythroleukemia cells; experiment: JAK1 pathway assay in TF-1 cells (IL-13-pSTAT6, MSD); type: cell-based; details: Homo sapiens, TF-1, TF-1 cells, read-out: IL13-pSTAT6 EC50_TF-1
Method in brief: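 Inhibitors were added to TF-1 cells (GM-CSF-starved, serum-free) for 30 min or to BEAS-2B cells (complete medium) for 1 hr at 37° C. MSD detected pSTAT6.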

[2] = target: isolated recombinant JAK2 kinase domain (Homo sapiens (Human), UniProt O60674); experiment: JAK2 enzyme assay (Caliper LabChip, peptide phosphorylation); type: biochemical; details: 25 μM ATP
[3] = target: isolated recombinant JAK1 kinase domain (Homo sapiens (Human), UniProt P23458); experiment: JAK1 enzyme assay (Caliper LabChip, peptide phosphorylation); type: biochemical; details: isolated recombinant JAK1 kinase domain, 25 μM ATP
Sequence of isolated recombinant JAK1 kinase domain (P23458 875-1153): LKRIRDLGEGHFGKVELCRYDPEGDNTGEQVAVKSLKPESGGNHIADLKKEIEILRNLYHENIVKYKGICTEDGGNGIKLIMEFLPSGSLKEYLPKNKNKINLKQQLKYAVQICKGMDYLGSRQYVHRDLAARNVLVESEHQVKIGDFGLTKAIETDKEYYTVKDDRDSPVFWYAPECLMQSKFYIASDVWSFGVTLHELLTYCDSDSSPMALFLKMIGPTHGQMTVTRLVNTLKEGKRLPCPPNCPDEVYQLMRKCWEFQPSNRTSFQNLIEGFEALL

Sequence of isolated recombinant JAK2 kinase domain (O60674 849-1124): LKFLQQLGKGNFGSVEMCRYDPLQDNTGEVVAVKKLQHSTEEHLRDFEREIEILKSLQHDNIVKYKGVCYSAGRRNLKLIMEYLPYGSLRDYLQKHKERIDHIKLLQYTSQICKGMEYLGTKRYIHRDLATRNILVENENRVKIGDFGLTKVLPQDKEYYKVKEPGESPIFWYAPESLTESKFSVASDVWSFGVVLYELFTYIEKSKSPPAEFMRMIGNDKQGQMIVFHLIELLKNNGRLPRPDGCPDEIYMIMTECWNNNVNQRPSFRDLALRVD

Compound	EC50 [1]	Ki [2]	Ki [3]
O=C(Nc1cn(CC(=O)N2C[C@H]3CN(CCc4ccccc4)C[C@H]3C2)nc1-c1cc(Cl)ccc1OC(F)F)c1cnn2cccnc12 [Example 13, N-[1-[2-[(3aS,6aR)-2-(2-phenylethyl)-1,3,3a,4,6,6a-hexahydropyrrolo[3,4-c]pyrrol-5-yl]-2-oxo-ethyl]-3-[5-chloro-2-(difluoromethoxy)phenyl]pyrazol-4-yl]pyrazolo[1,5-a]pyrimidine-3-carboxamide]	22 nM	0.66 nM	0.73 nM
O=C(CCCN1CCC(n2cc(NC(=O)c3cnn4cccnc34)c(-c3cc(Cl)ccc3OC(F)F)n2)CC1)NC1CCOCC1 [Example 152, N-[3-[5-chloro-2-(difluoromethoxy)phenyl]-1-[1-[4-oxo-4-(tetrahydropyran-4-ylamino)butyl]-4-piperidyl]pyrazol-4-yl]pyrazolo[1,5-a]pyrimidine-3-carboxamide]	11.9 nM	0.19 nM	1.08 nM
CN(C)CC1CCN(C(=O)Cn2cc(NC(=O)c3cnn4cccnc34)c(-c3cc(Cl)ccc3OC(F)F)n2)CC1 [Example 70, N-[3-[5-chloro-2-(difluoromethoxy)phenyl]-1-[2-[4-[(dimethylamino)methyl]-1-piperidyl]-2-oxo-ethyl]pyrazol-4-yl]pyrazolo[1,5-a]pyrimidine-3-carboxamide]	16.1 nM	2.38 nM	0.67 nM
CN(CCOc1ccc(Cl)cc1)C1CCN(C(=O)Cn2cc(NC(=O)c3cnn4cccnc34)c(-c3cc(Cl)ccc3OC(F)F)n2)CC1 [Example 107, N-[3-[5-chloro-2-(difluoromethoxy)phenyl]-1-[2-[4-[2-(4-chlorophenoxy)ethyl-methyl-amino]-1-piperidyl]-2-oxo-ethyl]pyrazol-4-yl]pyrazolo[1,5-a]pyrimidine-3-carboxamide]	17.6 nM	2.49 nM	0.97 nM
CN(C)C(=O)CCCN1CCC(n2cc(NC(=O)c3c(N)nn4cccnc34)c(-c3cc(Cl)ccc3OC(F)F)n2)CC1 [Example 148, 2-amino-N-[3-[5-chloro-2-(difluoromethoxy)phenyl]-1-[1-[4-(dimethylamino)-4-oxo-butyl]-4-piperidyl]pyrazol-4-yl]pyrazolo[1,5-a]pyrimidine-3-carboxamide]	9.4 nM	0.1 nM	0.64 nM
O=C(Nc1cn(CC(=O)N2C[C@@H]3CN(C(=O)OCCCO)C[C@@H]3C2)nc1-c1cc(Cl)ccc1OC(F)F)c1cnn2cccnc12 [Example 15, 3-hydroxypropyl (3aR,6aS)-2-[2-[3-[5-chloro-2-(difluoromethoxy)phenyl]-4-(pyrazolo[1,5-a]pyrimidine-3-carbonylamino)pyrazol-1-yl]acetyl]-1,3,3a,4,6,6a-hexahydropyrrolo[3,4-c]pyrrole-5-carboxylate]	334 nM	0.93 nM	0.53 nM
O=C(Nc1cn(CC(=O)N2C[C@H]3CN(CCCN4CCOCC4)C[C@H]3C2)nc1-c1cc(Cl)ccc1OC(F)F)c1cnn2cccnc12 [Example 19, N-[1-[2-[(3aR,6aS)-2-(3-morpholinopropyl)-1,3,3a,4,6,6a-hexahydropyrrolo[3,4-c]pyrrol-5-yl]-2-oxo-ethyl]-3-[5-chloro-2-(difluoromethoxy)phenyl]pyrazol-4-yl]pyrazolo[1,5-a]pyrimidine-3-carboxamide]	379 nM	0.71 nM	0.72 nM
CN1CC[C@@H]2CN(C(=O)Cn3cc(NC(=O)c4cnn5cccnc45)c(-c4cc(Cl)ccc4OC(F)F)n3)CC[C@@H]21 [Example 41, N-[1-[2-[(3aR,7aS)-1-methyl-3,3a,4,6,7,7a-hexahydro-2H-pyrrolo[3,2-c]pyridin-5-yl]-2-oxo-ethyl]-3-[5-chloro-2-(difluoromethoxy)phenyl]pyrazol-4-yl]pyrazolo[1,5-a]pyrimidine-3-carboxamide]	8 nM	1.47 nM	0.91 nM

Next, values leading:

EC50 [1]	Ki [2]	Ki [3]	Compound
18.3 nM	0.41 nM	0.56 nM	CN(C)C1CCN(C(=O)c2ccc(-c3nc(-c4cc(Cl)ccc4OC(F)F)c(NC(=O)c4cnn5cccnc45)s3)cc2)CC1 [Example 253, Pyrazolo[1,5-a]pyrimidine-3-carboxylic acid {4-(5-chloro-2-difluoromethoxy-phenyl)-2-[4-(4-dimethylamino-piperidine-1-carbonyl)-phenyl]-thiazol-5-yl}-amide hydrochloride]
8.9 nM	0.2 nM	0.49 nM	CN1CC[C@H](n2cc(NC(=O)c3c(N)nn4cccnc34)c(-c3cc(Cl)ccc3OC(F)F)n2)C1 [Example 182, 2-amino-N-[3-[5-chloro-2-(difluoromethoxy)phenyl]-1-[(3S)-1-methylpyrrolidin-3-yl]pyrazol-4-yl]pyrazolo[1,5-a]pyrimidine-3-carboxamide]
62.7 nM	1.73 nM	5.84 nM	CN1C[C@@H]2CN(Cc3nc(-c4cc(Cl)ccc4OC(F)F)c(NC(=O)c4cnn5cccnc45)s3)C[C@@H]2C1 [Example 262, N-[2-[[(3aR,6aS)-2-methyl-1,3,3a,4,6,6a-hexahydropyrrolo[3,4-c]pyrrol-5-yl]methyl]-4-[5-chloro-2-(difluoromethoxy)phenyl]thiazol-5-yl]pyrazolo[1,5-a]pyrimidine-3-carboxamide]
7.7 nM	0.29 nM	1.47 nM	CNC(=O)CCCN1CCC(n2cc(NC(=O)c3cnn4cccnc34)c(-c3cc(Cl)ccc3OC(F)F)n2)CC1 [Example 168, N-[3-[5-chloro-2-(difluoromethoxy)phenyl]-1-[1-[4-(methylamino)-4-oxo-butyl]-4-piperidyl]pyrazol-4-yl]pyrazolo[1,5-a]pyrimidine-3-carboxamide]
17.4 nM	1.44 nM	2.28 nM	O=C(Nc1sc(N2CCC(N3CC(F)C3)CC2)nc1-c1cc(Cl)ccc1OC(F)F)c1cnn2cccnc12 [Example 194, N-[4-[5-chloro-2-(difluoromethoxy)phenyl]-2-[4-(3-fluoroazetidin-1-yl)-1-piperidyl]thiazol-5-yl]pyrazolo[1,5-a]pyrimidine-3-carboxamide]
19.3 nM	0.39 nM	3.02 nM	CNC(=O)CCN1CCC(n2cc(NC(=O)c3cnn4cccnc34)c(-c3cc(Cl)ccc3OC(F)F)n2)CC1 [Example 160, N-[3-[5-chloro-2-(difluoromethoxy)phenyl]-1-[1-[3-(methylamino)-3-oxo-propyl]-4-piperidyl]pyrazol-4-yl]pyrazolo[1,5-a]pyrimidine-3-carboxamide]
12.5 nM	1.82 nM	1.13 nM	CN1CCC2(CC1)CN(C(=O)Cn1cc(NC(=O)c3cnn4cccnc34)c(-c3cc(Cl)ccc3OC(F)F)n1)C2 [Example 216, N-[3-[5-chloro-2-(difluoromethoxy)phenyl]-1-[2-(7-methyl-2,7-diazaspiro[3.5]nonan-2-yl)-2-oxo-ethyl]pyrazol-4-yl]pyrazolo[1,5-a]pyrimidine-3-carboxamide]
16.5 nM	0.86 nM	1.36 nM	O=C(Nc1sc(N2CC(N3CCCCC3)C2)nc1-c1cc(Cl)ccc1OC(F)F)c1cnn2cccnc12 [Example 195, N-[4-[5-chloro-2-(difluoromethoxy)phenyl]-2-[3-(1-piperidyl)azetidin-1-yl]thiazol-5-yl]pyrazolo[1,5-a]pyrimidine-3-carboxamide]
